PubChem BioAssay (NCI)
Values joined by “and” are separate entries in the source; they are usually repeats but may differ in a detail not shown here. Identical values can stand only once.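 How tested: cells in 96-well plates exposed to compound for 48 hours at five concentrations. GI50 is the concentration that inhibits growth by half. The concentration for full growth arrest is given as TGI.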

How the values were obtained:
Assay in all cases: NCI-60 cell line screen, 48 h
[1] = test system: 786-0 renal
[2] = test system: A498 renal
[3] = test system: HCC-2998 colon
[4] = test system: HCT-15 colon
[5] = test system: LOX IMVI melanoma
[6] = test system: M14 melanoma
[7] = test system: MALME-3M melanoma
[8] = test system: NCI-H226 lung
[9] = test system: OVCAR-5 ovarian
[10] = test system: TK-10 renal

Structure (SMILES)	TGI [1]	TGI [2]	TGI [3]	TGI [4]	TGI [5]	TGI [6]	TGI [7]	TGI [8]	TGI [9]	TGI [10]	GI50 [1]	GI50 [2]	GI50 [3]	GI50 [4]	GI50 [5]	GI50 [6]	GI50 [7]	GI50 [8]	GI50 [9]	GI50 [10]
Cc1cccc(C)c1N1C(=O)C(=O)C(c2nc3ccccc3s2)/C(=N/NC(=O)c2ccccc2O)C1=O (stereo not given)	> 66 µM	> 100 µM	> 73.1 µM	> 100 µM	> 100 µM	> 100 µM	> 100 µM	56.5 µM	> 100 µM	> 100 µM	–	–	–	–	–	–	–	–	–	–
CCOc1ccc(NCC2CC/C(=C\c3ccccc3OC)C2=O)cc1 (stereo not given)	8.3 µM	33.9 µM	25.8 µM	7.82 µM	18.6 µM	12.1 µM	27.6 µM	34.1 µM	32.5 µM	26.7 µM	–	–	–	–	–	–	–	–	–	–
O=C(c1ccccc1)c1c(C(F)(F)F)n([O-])c2cc(C(F)(F)F)ccc2[n+]1=O	1.4 µM	5.22 µM	3.44 µM	3.24 µM	0.745 µM	3.17 µM	3.33 µM	4.01 µM	5.54 µM	3.18 µM	0.655 µM	2.22 µM	1.88 µM	1.6 µM	0.258 µM	1.68 µM	1.6 µM	1.83 µM	1.99 µM	1.75 µM
O=C(CI)Nc1ccc(O)c2ccccc12	3.27 µM	9.12 µM	4.91 µM	2.48 µM	2.68 µM	2.63 µM	1.16 µM	5.61 µM	3.55 µM	3.75 µM	1.73 µM	2.37 µM	2.13 µM	0.817 µM	1.28 µM	1.06 µM	0.547 µM	1.67 µM	1.85 µM	1.72 µM
O=C1C(=O)c2ccccc2C(O)=C1CCCc1ccc(C2CCCCC2)cc1	43.5 µM	20.9 µM	61.4 µM	24.6 µM	12 µM	22.4 µM	51 µM	27.6 µM	42.2 µM	> 100 µM	3.73 µM	2.35 µM	11.6 µM	3 µM	1.15 µM	5.93 µM	3.55 µM	5.42 µM	17 µM	23.4 µM
COC(=O)C(CC(=O)Nc1ccc(Cl)c(Cl)c1)C(=O)C(=O)Nc1ccc(Cl)c(Cl)c1 (stereo not given)	> 100 µM	> 100 µM	> 100 µM	> 100 µM	> 100 µM	> 100 µM	> 100 µM	> 100 µM	> 100 µM	> 100 µM	–	–	–	–	–	–	–	–	–	–
CCCCCCCCCCCCCCCCOP(=O)([O-])OCC[N+](C)(C)C	7.76 µM and 25.4 µM	5.24 µM and 37.4 µM	–	–	–	–	12.6 µM and 52.7 µM	–	4.04 µM and 24.9 µM	–	2.33 µM	1.13 µM	1.06 µM	0.842 µM	1.36 µM	1.56 µM	3.1 µM	1.59 µM	0.735 µM	0.182 µM
O=S(=O)(N=NC=C1c2ccccc2N(O)c2ccccc21)c1ccc(Cl)cc1	> 100 µM	> 100 µM	> 100 µM	> 100 µM	> 100 µM	> 100 µM	> 100 µM	> 100 µM	> 100 µM	> 100 µM	–	–	–	–	–	–	–	–	–	–
COC1=CC(c2ccc[nH]2)=N/C1=C\c1[nH]c(C)c(CC(=O)OCc2ccccc2)c1C	1.19 µM	2.3 µM	–	1.1 µM	0.753 µM	0.59 µM	2.1 µM	2.31 µM	5.38 µM	2.11 µM	0.299 µM	0.433 µM	–	0.292 µM	0.214 µM	0.233 µM	0.578 µM	0.33 µM	1.11 µM	0.351 µM
N/N=C(\c1nc2ccc(Cl)cc2[nH]c1=O)C(O)c1ccc(Cl)c(Cl)c1 (stereo not given)	> 100 µM	–	> 100 µM	> 100 µM	> 100 µM	> 100 µM	> 100 µM	> 100 µM	> 100 µM	> 100 µM	–	–	–	–	–	–	–	–	–	–
CC(C)=CC(=O)N[C@H]1CC[C@]2(C)C3CC[C@]4(C)C(C(C)N(C)C)=CCC4C3CCC2[C@H]1O (stereo not given in full)	9.23 µM	16.6 µM	17.8 µM	4.2 µM	3.49 µM	3.74 µM	4.23 µM	25.7 µM	25.2 µM	26.3 µM	2.85 µM	3.82 µM	5.22 µM	1.55 µM	1.62 µM	1.92 µM	1.89 µM	8.49 µM	10.9 µM	11 µM
Clc1ccc2nc(CI)c(CI)nc2c1	–	> 60.7 µM	30.3 µM	12.1 µM	3.37 µM	> 19.8 µM	3.83 µM	> 38 µM	19.5 µM	10.2 µM	4.07 µM	29.7 µM	15.7 µM	3.46 µM	1.64 µM	3.16 µM	1.75 µM	10.4 µM	6.98 µM	3 µM
O=C1CNC(=O)c2[nH]cnc2N1	> 100 µM	> 100 µM	> 100 µM	> 100 µM	> 100 µM	> 100 µM	> 100 µM	> 100 µM	> 100 µM	> 100 µM	–	–	–	–	–	–	–	–	–	–
CC(=O)NNc1nc(C)c(C(=O)/C=C/c2ccc(Cl)cc2)s1	> 100 µM	> 100 µM	> 100 µM	–	> 100 µM	–	> 100 µM	–	> 100 µM	> 100 µM	–	–	–	–	–	–	–	–	–	–
Cc1ccc(S(=O)(=O)OC(COC(=O)c2ccccc2)C(OS(=O)(=O)c2ccc(C)cc2)C(OS(=O)(=O)c2ccc(C)cc2)C(COC(=O)c2ccccc2)OS(=O)(=O)c2ccc(C)cc2)cc1 (stereo not given)	> 100 µM	> 100 µM	> 100 µM	> 100 µM	> 100 µM	> 100 µM	> 100 µM	–	–	> 100 µM	–	–	–	–	–	–	–	–	–	–
CC(C(=O)c1ccccc1)C1(O)C(=O)Nc2ccc(Cl)cc21 (stereo not given)	> 100 µM	> 100 µM	> 100 µM	> 100 µM	> 100 µM	> 100 µM	> 100 µM	> 100 µM	> 100 µM	> 100 µM	–	–	–	–	–	–	–	–	–	–
